Values quoted from earlier work as cited in patent publication US20190048020A1, “DEUTERIUM-MODIFIED CFTR MODULATORS” (VERTEX PHARMACEUTICALS (EUROPE) LIMITED, priority 2016, published 2019).

Biological target: T1, CFTR G5551D mutation (Homo sapiens, UniProt P13569, G551D)
T1 construct: phase II study in patients with the CFTR G5551D mutation; host or cells: patients (in vivo, sweat chloride read-out)
Conditions: phase II study, patients with the CFTR G5551D mutation

T1 sequence (P13569 whole entry G551D): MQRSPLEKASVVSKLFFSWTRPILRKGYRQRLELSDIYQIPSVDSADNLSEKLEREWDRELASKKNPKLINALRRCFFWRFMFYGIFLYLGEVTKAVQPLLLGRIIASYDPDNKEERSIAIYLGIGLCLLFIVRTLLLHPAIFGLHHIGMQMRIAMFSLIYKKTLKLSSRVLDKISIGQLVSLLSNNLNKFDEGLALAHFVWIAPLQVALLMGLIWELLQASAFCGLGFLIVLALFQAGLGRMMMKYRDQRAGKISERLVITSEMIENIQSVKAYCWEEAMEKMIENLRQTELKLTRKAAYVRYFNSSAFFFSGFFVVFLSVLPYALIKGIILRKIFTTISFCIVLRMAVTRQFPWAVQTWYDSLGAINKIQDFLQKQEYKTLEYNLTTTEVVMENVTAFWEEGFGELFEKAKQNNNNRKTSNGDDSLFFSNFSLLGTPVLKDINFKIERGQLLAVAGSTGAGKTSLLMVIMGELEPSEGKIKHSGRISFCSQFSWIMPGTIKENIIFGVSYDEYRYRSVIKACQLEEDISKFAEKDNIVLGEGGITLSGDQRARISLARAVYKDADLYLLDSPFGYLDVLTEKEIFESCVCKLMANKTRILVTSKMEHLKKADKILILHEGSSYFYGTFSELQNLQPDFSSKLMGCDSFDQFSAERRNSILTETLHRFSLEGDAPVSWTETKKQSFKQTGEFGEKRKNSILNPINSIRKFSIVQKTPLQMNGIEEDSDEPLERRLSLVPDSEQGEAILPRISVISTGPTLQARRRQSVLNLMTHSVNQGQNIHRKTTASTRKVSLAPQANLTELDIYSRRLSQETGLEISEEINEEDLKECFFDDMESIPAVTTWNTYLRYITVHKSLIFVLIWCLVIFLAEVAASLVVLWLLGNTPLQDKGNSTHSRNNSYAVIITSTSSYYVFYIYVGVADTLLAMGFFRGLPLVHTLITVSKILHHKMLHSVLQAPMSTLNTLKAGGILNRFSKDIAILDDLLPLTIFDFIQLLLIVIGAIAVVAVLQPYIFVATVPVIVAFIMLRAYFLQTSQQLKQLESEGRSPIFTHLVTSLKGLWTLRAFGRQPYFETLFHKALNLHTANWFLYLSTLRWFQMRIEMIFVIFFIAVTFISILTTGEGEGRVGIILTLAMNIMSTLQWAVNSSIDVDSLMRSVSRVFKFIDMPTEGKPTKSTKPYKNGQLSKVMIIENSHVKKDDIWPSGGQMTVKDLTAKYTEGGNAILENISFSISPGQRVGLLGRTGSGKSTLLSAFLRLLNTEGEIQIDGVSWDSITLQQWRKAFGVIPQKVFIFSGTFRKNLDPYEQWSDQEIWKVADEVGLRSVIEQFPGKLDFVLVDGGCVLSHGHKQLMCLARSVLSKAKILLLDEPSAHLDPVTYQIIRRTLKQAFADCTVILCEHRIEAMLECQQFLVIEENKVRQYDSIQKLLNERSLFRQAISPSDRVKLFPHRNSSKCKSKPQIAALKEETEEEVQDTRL

CC1(C)Cc2c(sc(NC(=O)c3ccn[nH]3)c2C(N)=O)C(C)(C)O1 [GLPG1837]
sweat chloride concentration: statistically significant dose-dependent decrease
